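These data come from cells grown in 96-well plates and exposed to compound for 48 hours at five concentrations. GI50: concentration for 50% inhibition of growth. TGI marks complete inhibition of growth.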
How the values were obtained:
Experiment in all cases: growth of human tumour cells (NCI), 48 h
[1] = test system: A498 renal
[2] = test system: HT29 colon
[3] = test system: IGROV1 ovarian
[4] = test system: K-562 leukemia
[5] = test system: M14 melanoma
[6] = test system: MALME-3M melanoma
[7] = test system: NCI-H522 lung
[8] = test system: TK-10 renal
[9] = test system: MCF7 breast
[10] = test system: MDA-MB-435

c1ccc2c(c1)[nH]c1cnc3c4ncccc4[nH]c3c12
TGI [1]: > 100 µM | TGI [2]: > 100 µM | TGI [3]: > 100 µM | TGI [4]: > 100 µM | TGI [5]: > 100 µM | TGI [6]: > 100 µM | TGI [7]: > 100 µM | TGI [8]: > 100 µM

O=C1OC(CC(=O)c2ccc(F)cc2)C(Cl)=C1Cl (stereo unspecified)
TGI [2]: 32.1 µM | TGI [3]: 72.7 µM | TGI [4]: > 100 µM | TGI [5]: 56.6 µM | TGI [6]: 33.8 µM | TGI [7]: 34.9 µM | TGI [8]: 91.1 µM

COc1ccc2[nH]c(Cl)c(/C=C3/C(=O)Nc4ccccc43)c2c1
GI50 [2]: 0.316 µM | GI50 [3]: 0.724 µM | TGI [3]: 20.7 µM | GI50 [4]: 0.444 µM | TGI [4]: 13.2 µM | GI50 [5]: 0.254 µM | TGI [5]: 1.23 µM | GI50 [6]: 0.643 µM | TGI [6]: 2.26 µM | GI50 [9]: 0.79 µM | TGI [9]: > 38.5 µM | GI50 [10]: 0.251 µM | TGI [10]: 0.708 µM | GI50 [7]: 0.381 µM | TGI [7]: 1.87 µM | GI50 [8]: 1.06 µM | TGI [8]: 8.74 µM

NCCOc1ccc(/C(=C(/Cl)c2ccccc2)c2ccccc2)cc1
TGI [1]: 34.1 µM | TGI [2]: 7.81 µM | TGI [3]: 29.9 µM | TGI [4]: 14.8 µM | TGI [5]: 5.29 µM | TGI [6]: 24.3 µM | TGI [7]: 26.4 µM | TGI [8]: 26.2 µM

Cc1cc(F)c(C(=O)Nc2cccc(-c3nncn3C(C)C)n2)cc1-n1cnc(C2CC2)c1
GI50 [1]: 14.2 µM | TGI [1]: 62.6 µM | GI50 [2]: 18.2 µM | TGI [2]: > 100 µM | GI50 [3]: 6.89 µM | TGI [3]: 61.7 µM | GI50 [6]: 23.3 µM | TGI [6]: 72.1 µM | GI50 [9]: 9.48 µM | TGI [9]: 55.2 µM | GI50 [10]: 11.4 µM | TGI [10]: > 100 µM | GI50 [7]: 8.56 µM | TGI [7]: 44.1 µM | GI50 [8]: 8.12 µM | TGI [8]: 92.5 µM

O=C(NC1CCN(Cc2ccccc2)CC1)c1cc(-c2cccnc2)nc2ccc(Cl)cc12
TGI [1]: 5.49 µM | GI50 [3]: 16.1 µM | TGI [3]: 81.8 µM | GI50 [4]: 3.43 µM | TGI [4]: 76.8 µM | GI50 [6]: 7.92 µM | TGI [6]: > 100 µM | GI50 [9]: 4.78 µM | TGI [9]: > 100 µM | GI50 [10]: 9.96 µM | TGI [10]: > 100 µM

CCN(C(=O)N1CCN(c2cc3c(cc2F)c(=O)c(C(=O)O)cn3C2CC2)CC1)c1nc(-c2ccccc2)cs1
GI50 [2]: 3.2 µM | TGI [2]: > 100 µM | GI50 [3]: 3.12 µM | TGI [3]: > 100 µM | GI50 [4]: 3.2 µM | TGI [4]: > 100 µM | GI50 [5]: 3.16 µM | TGI [5]: > 100 µM | GI50 [6]: 2.77 µM | TGI [6]: 9.06 µM | GI50 [9]: 3.15 µM | TGI [9]: > 100 µM | GI50 [10]: 2.87 µM | TGI [10]: 11.6 µM | GI50 [7]: 2.01 µM | TGI [7]: 7.61 µM | GI50 [8]: 3.37 µM | TGI [8]: 53.2 µM

COC(=O)C(=O)C(CC(=O)Nc1cc(Cl)ccc1Cl)C(=O)OC (stereo unspecified)
TGI [1]: > 100 µM | TGI [2]: > 100 µM | TGI [3]: > 100 µM | TGI [4]: > 100 µM | TGI [5]: > 100 µM | TGI [6]: > 100 µM | TGI [7]: > 100 µM | TGI [8]: > 100 µM

CCOC(=O)c1oc2c(OC)ccc3c2c1CCC3
TGI [1]: > 100 µM | TGI [2]: > 100 µM | TGI [3]: > 100 µM | TGI [4]: > 100 µM | TGI [5]: > 100 µM | TGI [6]: > 100 µM | TGI [7]: > 100 µM | TGI [8]: > 100 µM

O=C(Nc1cccc(C(F)(F)F)c1)C(=O)C(C(=O)c1ccc(Cl)c(Cl)c1)C1OC(=O)c2ccccc21 (stereo unspecified)
TGI [1]: 79.8 µM | TGI [2]: > 100 µM | TGI [3]: > 100 µM | TGI [4]: > 100 µM | TGI [5]: > 100 µM | TGI [6]: 76.9 µM | TGI [7]: > 100 µM | TGI [8]: > 100 µM

C/C(=N\Nc1ccccc1)c1sc(-c2nc(C)c(/C(C)=N/Nc3ccccc3)s2)nc1C
TGI [1]: > 100 µM | TGI [2]: 26.2 µM | TGI [3]: > 60.9 µM | TGI [4]: 69.9 µM | TGI [5]: 25 µM | TGI [6]: 51 µM | TGI [7]: 48.3 µM | TGI [8]: > 100 µM

CCCCCCCCCCC(=O)CCCCCCC(=O)O
TGI [1]: 42.7 µM | TGI [2]: 36.1 µM | TGI [3]: 34.9 µM | TGI [4]: 26.9 µM | TGI [5]: 47.9 µM | TGI [6]: 45 µM | TGI [7]: 50.5 µM | TGI [8]: > 100 µM

COc1cc(/C=C/C(=O)c2cccc3ccccc23)cc(OC)c1OC
TGI [1]: 10.6 µM | TGI [2]: 14.4 µM | TGI [3]: 43.4 µM | TGI [4]: 14.1 µM | TGI [5]: 19.1 µM | TGI [6]: 24.9 µM | TGI [8]: 27.3 µM

C/C(=C1/N=C(c2cc([N+](=O)[O-])ccc2Cl)N(c2ccc(Br)cc2)C1=O)c1ccc(N(CCC#N)CCC#N)cc1C
TGI [1]: 96.4 µM | TGI [2]: > 100 µM | TGI [3]: > 100 µM | TGI [4]: 29.3 µM | TGI [5]: > 100 µM | TGI [6]: > 100 µM | TGI [8]: > 100 µM

Cc1ccccc1NC(=O)CC1C(=O)Nc2ccccc2S1=O (stereo unspecified)
TGI [1]: > 100 µM | TGI [2]: > 100 µM | TGI [3]: > 100 µM | TGI [4]: > 100 µM | TGI [5]: > 100 µM | TGI [6]: > 100 µM | TGI [7]: > 100 µM | TGI [8]: > 100 µM

CN1CCN(CCCOc2cccc3nc(Nc4cc(Cl)cc(Cl)c4)ccc23)CC1
GI50 [1]: 1.78 µM | TGI [1]: 3.51 µM | GI50 [2]: 1.41 µM | TGI [2]: 2.78 µM | GI50 [3]: 1.68 µM | TGI [3]: 3.59 µM | GI50 [5]: 1.73 µM | TGI [5]: 3.28 µM | GI50 [6]: 1.92 µM | TGI [6]: 3.7 µM | GI50 [9]: 1.38 µM | TGI [9]: 2.94 µM | GI50 [10]: 1.68 µM | TGI [10]: 3.2 µM | GI50 [7]: 1.64 µM | TGI [7]: 3.17 µM | GI50 [8]: 1.75 µM | TGI [8]: 3.17 µM

NC(N)=NN=c1c(=O)c2ccccc2c1=O
GI50 [2]: 2.81 µM | TGI [2]: 6.27 µM | GI50 [3]: 17.2 µM | TGI [3]: 35.3 µM | GI50 [5]: 2 µM | TGI [5]: 3.46 µM | GI50 [6]: 1.66 µM | TGI [6]: 3.06 µM | GI50 [9]: 8.89 µM | TGI [9]: 27.9 µM | GI50 [10]: 1.95 µM | TGI [10]: 3.71 µM | GI50 [7]: 17.7 µM | TGI [7]: 32.8 µM | GI50 [8]: 22.6 µM | TGI [8]: 37.4 µM

CC1CC(C[N+](=O)[O-])CC2(C1)OCCO2 (stereo unspecified)
TGI [1]: > 100 µM | TGI [3]: > 100 µM | TGI [4]: > 100 µM | TGI [5]: > 100 µM | TGI [6]: > 100 µM | TGI [7]: > 100 µM | TGI [8]: > 100 µM

CC1=C(C(=O)Nc2cccc(Cl)c2)C(c2ccccc2O)C(C(=O)Nc2cccc(Cl)c2)=C(C)N1
TGI [1]: 38 µM | TGI [2]: 35.7 µM | TGI [3]: 70.7 µM | TGI [4]: 53.7 µM | TGI [5]: 31.7 µM | TGI [6]: 38.6 µM | TGI [7]: 34.1 µM | TGI [8]: 39.5 µM
